From the supplement of paper PMC10883282

Assays:
Assay in all cases: relative viability vs DMSO control (72 h) (fraction); higher = more viable cells
VA-ES-BJ = test system: VA-ES-BJ
Outline: (§1)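 ATPLite readings, expressed as percent growth and averaged over up to triplicate wells, provided relative viability. Before reading, sarcoma cell lines seeded in 384-well plates to reach 80–90% confluence received 2.5 µl of serially diluted compound after 24 h, from source plates of 10 mM to 0.0002 mM. Plates were held 72 h at 37 °C, 5% CO2, with 0.1% DMSO as vehicle and a 5 µM positive control. The data were rescaled to 1 for full and 0 for none.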

SK-LMS-1 = test system: SK-LMS-1
Outline: as §1

SW1353 = test system: SW1353
Outline: as §1

SW684 = test system: SW684
Outline: as §1

A204 = test system: A204
Outline: as §1

MES-SA = test system: MES-SA
Outline: as §1

HT1080 = test system: HT1080
Outline: as §1

G401 = test system: G401
Outline: as §1

SYO-1 = test system: SYO-1
Outline: as §1

SW872 = test system: SW872
Outline: as §1

KHOS-NP = test system: KHOS-NP
Outline: as §1

HS729 = test system: HS729
Outline: as §1

COc1cc2ncnc(Nc3ccc(F)c(Cl)c3)c2cc1OCCCN1CCOCC1 [Gefitinib]
Settings	relative viability
A204, 0.00017 µM	1.06
A204, 0.00051 µM	1.08
A204, 0.00152 µM	1.09
A204, 0.00457 µM	1.06
A204, 0.01372 µM	1.05
A204, 0.04115 µM	1.1
A204, 0.1235 µM	1.1
A204, 0.3704 µM	1.03
A204, 1.111 µM	1.04
A204, 3.333 µM	0.876
A204, 10 µM	0.448
G401, 0.00017 µM	1.01
G401, 0.00051 µM	1
G401, 0.00152 µM	0.9788
G401, 0.00457 µM	0.987
G401, 0.01372 µM	1
G401, 0.04115 µM	0.996
G401, 0.1235 µM	1
G401, 0.3704 µM	0.993
G401, 1.111 µM	0.984
G401, 3.333 µM	0.835
G401, 10 µM	0.582
HS729, 0.00017 µM	0.9733
HS729, 0.00051 µM	0.97
HS729, 0.00152 µM	1.03
HS729, 0.00457 µM	0.947
HS729, 0.01372 µM	1.01
HS729, 0.04115 µM	1.03
HS729, 0.1235 µM	1
HS729, 0.3704 µM	1.01
HS729, 1.111 µM	0.958
HS729, 3.333 µM	0.853
HS729, 10 µM	0.621
HT1080, 0.00017 µM	1.05
HT1080, 0.00051 µM	1.1
HT1080, 0.00152 µM	1.04
HT1080, 0.00457 µM	1.07
HT1080, 0.01372 µM	1.06
HT1080, 0.04115 µM	1.03
HT1080, 0.1235 µM	1.047
HT1080, 0.3704 µM	1.07
HT1080, 1.111 µM	1.05
HT1080, 3.333 µM	1.04
HT1080, 10 µM	0.483
KHOS-NP, 0.00017 µM	1.09
KHOS-NP, 0.00051 µM	1.08
KHOS-NP, 0.00152 µM	1.08
KHOS-NP, 0.00457 µM	1.08
KHOS-NP, 0.01372 µM	1.096
KHOS-NP, 0.04115 µM	1.07
KHOS-NP, 0.1235 µM	1.06
KHOS-NP, 0.3704 µM	1.06
KHOS-NP, 1.111 µM	1.08
KHOS-NP, 3.333 µM	1.08
KHOS-NP, 10 µM	0.898
MES-SA, 0.00017 µM	0.97
MES-SA, 0.00051 µM	0.948
MES-SA, 0.00152 µM	0.959
MES-SA, 0.00457 µM	0.952
MES-SA, 0.01372 µM	0.937
MES-SA, 0.04115 µM	0.962
MES-SA, 0.1235 µM	0.969
MES-SA, 0.3704 µM	0.969
MES-SA, 1.111 µM	0.925
MES-SA, 3.333 µM	0.739
MES-SA, 10 µM	0.4455
SK-LMS-1, 0.00017 µM	1.07
SK-LMS-1, 0.00051 µM	1.09
SK-LMS-1, 0.00152 µM	1.05
SK-LMS-1, 0.00457 µM	1.08
SK-LMS-1, 0.01372 µM	1.07
SK-LMS-1, 0.04115 µM	1.08
SK-LMS-1, 0.1235 µM	1.06
SK-LMS-1, 0.3704 µM	1.04
SK-LMS-1, 1.111 µM	1.05
SK-LMS-1, 3.333 µM	0.902
SK-LMS-1, 10 µM	0.108
SW684, 0.00017 µM	1.09
SW684, 0.00051 µM	1.16
SW684, 0.00152 µM	1.09
SW684, 0.00457 µM	1.17
SW684, 0.01372 µM	1.1
SW684, 0.04115 µM	1.15
SW684, 0.1235 µM	1.07
SW684, 0.3704 µM	1.16
SW684, 1.111 µM	1.1
SW684, 3.333 µM	1.15
SW684, 10 µM	0.424
SW872, 0.00017 µM	1
SW872, 0.00051 µM	1.02
SW872, 0.00152 µM	1.05
SW872, 0.00457 µM	1.026
SW872, 0.01372 µM	1.03
SW872, 0.04115 µM	1.02
SW872, 0.1235 µM	1.03
SW872, 0.3704 µM	1.04
SW872, 1.111 µM	1.01
SW872, 3.333 µM	0.868
SW872, 10 µM	0.476
SW1353, 0.00017 µM	1.03
SW1353, 0.00051 µM	1.073
SW1353, 0.00152 µM	0.999
SW1353, 0.00457 µM	1.02
SW1353, 0.01372 µM	1.02
SW1353, 0.04115 µM	0.979
SW1353, 0.1235 µM	0.93
SW1353, 0.3704 µM	0.903
SW1353, 1.111 µM	0.928
SW1353, 3.333 µM	0.892
SW1353, 10 µM	0.168
SYO-1, 0.00017 µM	1.01
SYO-1, 0.00051 µM	1.02
SYO-1, 0.00152 µM	0.999
SYO-1, 0.00457 µM	0.998
SYO-1, 0.01372 µM	0.999
SYO-1, 0.04115 µM	0.9815
SYO-1, 0.1235 µM	1
SYO-1, 0.3704 µM	0.983
SYO-1, 1.111 µM	0.955
SYO-1, 3.333 µM	0.829
SYO-1, 10 µM	0.104
VA-ES-BJ, 0.00017 µM	1.05
VA-ES-BJ, 0.00051 µM	1.05
VA-ES-BJ, 0.00152 µM	1.074
VA-ES-BJ, 0.00457 µM	1.04
VA-ES-BJ, 0.01372 µM	1.04
VA-ES-BJ, 0.04115 µM	1.05
VA-ES-BJ, 0.1235 µM	1.05
VA-ES-BJ, 0.3704 µM	1.06
VA-ES-BJ, 1.111 µM	1.06
VA-ES-BJ, 3.333 µM	1.04
VA-ES-BJ, 10 µM	0.75

CN(C)C(=O)c1cc2cnc(Nc3ccc(N4CCNCC4)cn3)nc2n1C1CCCC1 [Ribociclib]
Settings	relative viability
A204, 0.00017 µM	1.07
A204, 0.00051 µM	1.09
A204, 0.00152 µM	1.08
A204, 0.00457 µM	1.09
A204, 0.01372 µM	1.05
A204, 0.04115 µM	1.05
A204, 0.1235 µM	0.967
A204, 0.3704 µM	0.907
A204, 1.111 µM	0.921
A204, 3.333 µM	0.795
A204, 10 µM	0.639
G401, 0.00017 µM	0.987
G401, 0.00051 µM	0.968
G401, 0.00152 µM	1.02
G401, 0.00457 µM	0.983
G401, 0.01372 µM	0.97
G401, 0.04115 µM	0.899
G401, 0.1235 µM	0.898
G401, 0.3704 µM	0.886
G401, 1.111 µM	0.846
G401, 3.333 µM	0.794
G401, 10 µM	0.774
HS729, 0.00017 µM	0.88
HS729, 0.00051 µM	0.877
HS729, 0.00152 µM	0.878
HS729, 0.00457 µM	0.893
HS729, 0.01372 µM	0.905
HS729, 0.04115 µM	0.915
HS729, 0.1235 µM	0.928
HS729, 0.3704 µM	0.875
HS729, 1.111 µM	0.89
HS729, 3.333 µM	0.87
HS729, 10 µM	0.869
HT1080, 0.00017 µM	1.08
HT1080, 0.00051 µM	1.11
HT1080, 0.00152 µM	1.08
HT1080, 0.00457 µM	1.08
HT1080, 0.01372 µM	1.05
HT1080, 0.04115 µM	1.08
HT1080, 0.1235 µM	1.1
HT1080, 0.3704 µM	1.09
HT1080, 1.111 µM	1.12
HT1080, 3.333 µM	1.09
HT1080, 10 µM	0.978
KHOS-NP, 0.00017 µM	1.08
KHOS-NP, 0.00051 µM	1.07
KHOS-NP, 0.00152 µM	1.06
KHOS-NP, 0.00457 µM	1.07
KHOS-NP, 0.01372 µM	1.06
KHOS-NP, 0.04115 µM	1.07
KHOS-NP, 0.1235 µM	1.07
KHOS-NP, 0.3704 µM	1.08
KHOS-NP, 1.111 µM	1.08
KHOS-NP, 3.333 µM	1.08
KHOS-NP, 10 µM	1.03
MES-SA, 0.00017 µM	0.899
MES-SA, 0.00051 µM	0.909
MES-SA, 0.00152 µM	0.914
MES-SA, 0.00457 µM	0.908
MES-SA, 0.01372 µM	0.896
MES-SA, 0.04115 µM	0.884
MES-SA, 0.1235 µM	0.868
MES-SA, 0.3704 µM	0.853
MES-SA, 1.111 µM	0.817
MES-SA, 3.333 µM	0.6876
MES-SA, 10 µM	0.598
SK-LMS-1, 0.00017 µM	1.05
SK-LMS-1, 0.00051 µM	1.05
SK-LMS-1, 0.00152 µM	1.12
SK-LMS-1, 0.00457 µM	1.08
SK-LMS-1, 0.01372 µM	1.09
SK-LMS-1, 0.04115 µM	1.11
SK-LMS-1, 0.1235 µM	1.06
SK-LMS-1, 0.3704 µM	1.01
SK-LMS-1, 1.111 µM	0.99
SK-LMS-1, 3.333 µM	0.952
SK-LMS-1, 10 µM	0.9041
SW684, 0.00017 µM	1.16
SW684, 0.00051 µM	1.16
SW684, 0.00152 µM	1.14
SW684, 0.00457 µM	1.15
SW684, 0.01372 µM	1.13
SW684, 0.04115 µM	1.15
SW684, 0.1235 µM	1.15
SW684, 0.3704 µM	1.14
SW684, 1.111 µM	1.17
SW684, 3.333 µM	1.1
SW684, 10 µM	1.05
SW872, 0.00017 µM	1.03
SW872, 0.00051 µM	1.01
SW872, 0.00152 µM	1.02
SW872, 0.00457 µM	1.02
SW872, 0.01372 µM	1.02
SW872, 0.04115 µM	0.996
SW872, 0.1235 µM	0.959
SW872, 0.3704 µM	0.938
SW872, 1.111 µM	0.946
SW872, 3.333 µM	0.818
SW872, 10 µM	0.713
SW1353, 0.00017 µM	1.01
SW1353, 0.00051 µM	1
SW1353, 0.00152 µM	0.974
SW1353, 0.00457 µM	0.985
SW1353, 0.01372 µM	0.992
SW1353, 0.04115 µM	0.961
SW1353, 0.1235 µM	0.921
SW1353, 0.3704 µM	0.918
SW1353, 1.111 µM	0.901
SW1353, 3.333 µM	0.802
SW1353, 10 µM	0.858
SYO-1, 0.00017 µM	0.96
SYO-1, 0.00051 µM	0.956
SYO-1, 0.00152 µM	0.96
SYO-1, 0.00457 µM	0.937
SYO-1, 0.01372 µM	0.923
SYO-1, 0.04115 µM	0.87
SYO-1, 0.1235 µM	0.814
SYO-1, 0.3704 µM	0.772
SYO-1, 1.111 µM	0.705
SYO-1, 3.333 µM	0.598
SYO-1, 10 µM	0.523
VA-ES-BJ, 0.00017 µM	1.03
VA-ES-BJ, 0.00051 µM	1.04
VA-ES-BJ, 0.00152 µM	1.01
VA-ES-BJ, 0.00457 µM	0.995
VA-ES-BJ, 0.01372 µM	0.988
VA-ES-BJ, 0.04115 µM	0.985
VA-ES-BJ, 0.1235 µM	0.931
VA-ES-BJ, 0.3704 µM	0.869
VA-ES-BJ, 1.111 µM	0.872
VA-ES-BJ, 3.333 µM	0.712
VA-ES-BJ, 10 µM	0.597
